According to patent US6914045B2, “Glycopeptide antibiotics” (Wyeth Holdings Corporation, priority 2001, dated 2005):
Values after ≈ are worked out from the molar mass of the structure shown.

Legend:
Assay in all cases: in vitro antibacterial evaluation, MIC by broth dilution
Assay type in all cases: cell-based
Enterococcus sp. = details: broth dilution, 18 hours at 35° C.
Procedure, shortened: (§1)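 MIC = lowest antibiotic concentration preventing visible growth; inoculum 5×10^5 CFU/mL; drug range 64-0.06 μg/mL; Muller-Hinton II […]; NCCLS M7-A2 guidance.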

Streptococcus sp. = details: broth dilution, 18 hours at 35° C.
Procedure, shortened: as §1

Staphylococcus sp. = details: broth dilution, 18 hours at 35° C.
Procedure, shortened: as §1

Escherichia coli = details: 18 hours at 35° C.

Compound: CC(c1ccccc1)C1NC(=O)CNC(=O)C(CO)NC(=O)C(C(O)C2CNC(=N)N2C2OC(CO)C(O)C3OC(C)(C)OC32)NC(=O)C(C(O)C2CNC(=N)N2)NC(=O)C(Cc2ccc(OC3OC(CO)C(OC4OC(CO)C(O)C5OC(C)(C)OC45)C4OC(C)(C)OC34)cc2)NC1=O (stereo not shown) [Example 229a]
- MIC Enterococcus avium (GC 4558) (Enterococcus sp.): 128 µg/mL (≈ 90.4 µM)
- MIC Enterococcus faecalis (ATCC 29212) (Enterococcus sp.): >128 µg/mL
- MIC Enterococcus faecalis (GC 2242) (Enterococcus sp.): >128 µg/mL
- MIC Enterococcus faecalis (GC 2691) (Enterococcus sp.): >128 µg/mL
- MIC Enterococcus faecalis (GC 3059) (Enterococcus sp.): >128 µg/mL
- MIC Enterococcus faecalis (GC 4552) (Enterococcus sp.): >128 µg/mL
- MIC Enterococcus faecalis (GC 4553) (Enterococcus sp.): >128 µg/mL
- MIC Enterococcus faecalis (GC 4554) (Enterococcus sp.): >128 µg/mL
- MIC Enterococcus faecalis (GC 6189) (Enterococcus sp.): >128 µg/mL
- MIC Enterococcus faecium (GC 2243) (Enterococcus sp.): >128 µg/mL
- MIC Enterococcus faecium (GC 4556) (Enterococcus sp.): >128 µg/mL
- MIC Enterococcus faecium (GC 4557) (Enterococcus sp.): >128 µg/mL
- MIC Enterococcus faecalis (ATCC 29212) (Enterococcus sp.; inoculum 5×10^5 CFU/mL, strain ATCC 29212): >128 µg/mL
- MIC Enterococcus faecalis (GC 2242) (Enterococcus sp.; inoculum 5×10^5 CFU/mL, strain GC 2242): >128 µg/mL
- MIC Enterococcus faecium (GC 2243) (Enterococcus sp.; inoculum 5×10^5 CFU/mL, strain GC 2243): >128 µg/mL
- MIC Enterococcus faecalis (GC 2691) (Enterococcus sp.; inoculum 5×10^5 CFU/mL, strain GC 2691): >128 µg/mL
- MIC Enterococcus faecalis (GC 3059) (Enterococcus sp.; inoculum 5×10^5 CFU/mL, strain GC 3059): >128 µg/mL
- MIC Enterococcus faecalis (GC 4552) (Enterococcus sp.; inoculum 5×10^5 CFU/mL, strain GC 4552): >128 µg/mL
- MIC Enterococcus faecalis (GC 4553) (Enterococcus sp.; inoculum 5×10^5 CFU/mL, strain GC 4553): >128 µg/mL
- MIC Enterococcus faecalis (GC 4554) (Enterococcus sp.; inoculum 5×10^5 CFU/mL, strain GC 4554): >128 µg/mL
- MIC Enterococcus faecium (GC 4556) (Enterococcus sp.; inoculum 5×10^5 CFU/mL, strain GC 4556): >128 µg/mL
- MIC Enterococcus faecium (GC 4557) (Enterococcus sp.; inoculum 5×10^5 CFU/mL, strain GC 4557): >128 µg/mL
- MIC Enterococcus avium (GC 4558) (Enterococcus sp.; inoculum 5×10^5 CFU/mL, strain GC 4558): 128 µg/mL (≈ 90.4 µM)
- MIC Enterococcus faecalis (GC 6189) (Enterococcus sp.; inoculum 5×10^5 CFU/mL, strain GC 6189): >128 µg/mL
- MIC Streptococcus agalactiae (GC 4564) (Streptococcus sp.): >128 µg/mL
- MIC Streptococcus pneumoniae (ATCC 6301) (Streptococcus sp.): >128 µg/mL
- MIC Streptococcus pneumoniae (GC 1894) (Streptococcus sp.): >128 µg/mL
- MIC Streptococcus pneumoniae (GC 4565) (Streptococcus sp.): >128 µg/mL
- MIC Streptococcus pyogenes (GC 4563) (Streptococcus sp.): >128 µg/mL
- MIC Streptococcus pneumoniae (ATCC 6301) (Streptococcus sp.; inoculum 5×10^5 CFU/mL, strain ATCC 6301): >128 µg/mL
- MIC Streptococcus pneumoniae (GC 1894) (Streptococcus sp.; inoculum 5×10^5 CFU/mL, strain GC 1894): >128 µg/mL
- MIC Streptococcus pyogenes (GC 4563) (Streptococcus sp.; inoculum 5×10^5 CFU/mL, strain GC 4563): >128 µg/mL
- MIC Streptococcus agalactiae (GC 4564) (Streptococcus sp.; inoculum 5×10^5 CFU/mL, strain GC 4564): >128 µg/mL
- MIC Streptococcus pneumoniae (GC 4565) (Streptococcus sp.; inoculum 5×10^5 CFU/mL, strain GC 4565): >128 µg/mL
- MIC Coagulase Negative Staphylococcus (GC 4547) (Staphylococcus sp.): >128 µg/mL
- MIC Coagulase Negative Staphylococcus (GC 4548) (Staphylococcus sp.): >128 µg/mL
- MIC Coagulase Negative Staphylococcus (GC 4549) (Staphylococcus sp.): >128 µg/mL
- MIC Coagulase Negative Staphylococcus (GC 4551) (Staphylococcus sp.): >128 µg/mL
- MIC Coagulase Negative Staphylococcus (GC 6257) (Staphylococcus sp.): >128 µg/mL
- MIC Staphylococcus aureus (ATCC 29213) (Staphylococcus sp.): >128 µg/mL
- MIC Staphylococcus aureus (GC 1131) (Staphylococcus sp.): >128 µg/mL
- MIC Staphylococcus aureus (GC 3051) (Staphylococcus sp.): >128 µg/mL
- MIC Staphylococcus aureus (GC 3053) (Staphylococcus sp.): >128 µg/mL
- MIC Staphylococcus aureus (GC 4541) (Staphylococcus sp.): >128 µg/mL
- MIC Staphylococcus aureus (GC 4542) (Staphylococcus sp.): >128 µg/mL
- MIC Staphylococcus aureus (GC 4544) (Staphylococcus sp.): >128 µg/mL
- MIC Staphylococcus aureus (GC 4545) (Staphylococcus sp.): >128 µg/mL
- MIC Staphylococcus aureus-SMITH (GC 4543) (Staphylococcus sp.): >128 µg/mL
- MIC Staphylococcus haemolyticus (GC 4546) (Staphylococcus sp.): >128 µg/mL
- MIC Staphylococcus aureus (ATCC 29213) (Staphylococcus sp.; strain ATCC 29213): >128 µg/mL
- MIC Staphylococcus aureus (GC 1131) (Staphylococcus sp.; strain GC 1131): >128 µg/mL
- MIC Staphylococcus aureus (GC 3051) (Staphylococcus sp.; strain GC 3051): >128 µg/mL
- MIC Staphylococcus aureus (GC 3053) (Staphylococcus sp.; strain GC 3053): >128 µg/mL
- MIC Staphylococcus aureus (GC 4541) (Staphylococcus sp.; strain GC 4541): >128 µg/mL
- MIC Staphylococcus aureus (GC 4542) (Staphylococcus sp.; strain GC 4542): >128 µg/mL
- MIC Staphylococcus aureus-SMITH (GC 4543) (Staphylococcus sp.; strain GC 4543): >128 µg/mL
- MIC Staphylococcus aureus (GC 4544) (Staphylococcus sp.; strain GC 4544): >128 µg/mL
- MIC Staphylococcus aureus (GC 4545) (Staphylococcus sp.; strain GC 4545): >128 µg/mL
- MIC Staphylococcus haemolyticus (GC 4546) (Staphylococcus sp.; strain GC 4546): >128 µg/mL
- MIC Coagulase Negative Staphylococcus (GC 4547) (Staphylococcus sp.; strain GC 4547): >128 µg/mL
- MIC Coagulase Negative Staphylococcus (GC 4548) (Staphylococcus sp.; strain GC 4548): >128 µg/mL
- MIC Coagulase Negative Staphylococcus (GC 4549) (Staphylococcus sp.; strain GC 4549): >128 µg/mL
- MIC Coagulase Negative Staphylococcus (GC 4551) (Staphylococcus sp.; strain GC 4551): >128 µg/mL
- MIC Coagulase Negative Staphylococcus (GC 6257) (Staphylococcus sp.; strain GC 6257): >128 µg/mL
- MIC Escherichia coli (ATCC 25922) (Escherichia coli): >128 µg/mL
- MIC Escherichia coli (GC 4559) (Escherichia coli): >128 µg/mL
- MIC Escherichia coli (GC 4560) (Escherichia coli): >128 µg/mL
